For twelve molecules, sweetness intensity, taste and hydrolytic stability results are on record in patent EP0168881B1, “Oxa-fenchyl esters and amides of alpha-l-aspartyl-d-phenylglycine” (THE PROCTER & GAMBLE COMPANY, priority 1984, dated 1986).

For data set [1] the following is noted: cited from earlier work; for sweetness intensity: background art values; for taste: taste in words, background art.
Data set [2] in a line: Sweetness intensity relative to sucrose, taste panel. The format is in vivo, Male subjects. The note with it: based on informal panel testing. From the text: The sweetness intensity of the esters and amides of the present invention relative to sucrose can be determined according to the following procedure:
Male subjects are chosen at random from a group of about 20 persons who have previously been selected on the basis of proven tasting acuity, i.e., persons who could.easily recognize the four basic tastes (sweet, sour, bitter and salty) and who are adept at quantifying their own physiological response numerically. The subjects are asked to taste and expectorate about 10 ml of a test sample (temperature of about 22°C) having dissolved therein the ester of amide. […] Sweetness intensity of the test sample is recorded by the subject making a mark on the linear scale at a point they consider equal in sweetness among the standard samples; interpolation between standards is encouraged. After completion of the panel, a five point numeric scale is superimposed on the linear scales to obtain numerical data; data is averaged and recorded to.the nearest 0.25 unit..Equivalent sucrose sweetness is determined by referring to graphs of (w/v) sucrose concentration in the standard samples versus a linear numeric scale.
Sweetness intensity is calculated by dividing the concentration (w/v) of perceived sweetness by the concentration (w/v) of the ester or amide required to produce that sweetness. […]

The conditions of data set [3]: carbonated beverages; background statement; cited from earlier work.

Read-outs that look alike come from different tables or passages of the source. Non-standard residues stand in square brackets, D forms with d. Residues, ends and D or L forms follow the SMILES beside them. Phg = N[C@H](C(=O)O)c1ccccc1

Consider `C[C@@H](NC(=O)[C@@H](N)CC(=O)O)C(=O)NC1C(C)(C)S(=O)(=O)C1(C)C`, for which the sweetness intensity in data set [1] is 1000 times that of sucrose. With `CC12CCC(O1)C(C)(C)C2OC(=O)C(NC(=O)C(N)CC(=O)O)c1ccccc1` (single isomer, unassigned) [Example 2, alpha-L-Aspartyl-D-phenylglycine-alpha-7-oxa-fenchyl ester], the sweetness intensity entry in data set [2] is reported as “approximately 1000 X”. For the molecule `C[C@@H](NC(=O)[C@@H](N)CC(=O)O)C(=O)NC1C(C)(C)SC1(C)C` [2,2,4,4-tetramethylthietan-3-yl], the sweetness intensity in data set [1] is 2000 times that of sucrose.

Regarding `CC1CCC(C)C1NC(=O)[C@@H](C)NC(=O)[C@@H](N)CC(=O)O` (stereo partly drawn) [2,5-dimethylcyclopentyl], in data set [1], the sweetness intensity was 520 times that of sucrose.

Turning to `CC1CCCC(C)C1NC(=O)[C@@H](C)NC(=O)[C@@H](N)CC(=O)O` (stereo partly drawn) [2,6-dimethylcyclohexyl], the sweetness intensity in data set [1] is listed as 600 times that of sucrose. In the case of `O=C1NS(=O)(=O)c2ccccc21` [Saccharin], in data set [1], the sweetness intensity result is “about 300 times that of sucrose” and the taste entry is “undesirable lingering bitter aftertaste”. Turning to `COC(=O)[C@H](Cc1ccccc1)NC(=O)[C@@H](N)CC(=O)O` [aspartame, a/pha-L-aspartyl-L-phenylalanine lower alkyl esters, in particular the methyl ester known as aspartame] (H-Asp-Phe-OMe), the sweetness intensity in data set [1] is 150-200 times that of sucrose. In data set [3], the hydrolytic stability result is “hydrolytically unstable in most carbonated beverages”. As for `C[C@@H](NC(=O)[C@@H](N)CC(=O)O)C(=O)NC(C1CC1)C1CC1` [dicyclopropylcarbinyl], the sweetness intensity in data set [1] is 1200 times that of sucrose. For `C[C@@H](NC(=O)[C@@H](N)CC(=O)O)C(=O)NC1C2(C)CCC(C2)C1(C)C` (stereo partly drawn) [fenchyl], the sweetness intensity in data set [1] is 320 times that of sucrose. Consider `COC(=O)[C@@H](Cc1ccccc1)NC(=O)[C@@H](N)CC(=O)O` [methyl ester of L-aspartyl-D-phenylalanine] (H-Asp-[dF]-OMe), for which the taste result in data set [1] was “bitter”. Turning to `COC(=O)[C@@H](NC(=O)[C@@H](N)CC(=O)O)c1ccccc1` [methyl ester of L-aspartyl-L-phenylglycine] (H-Asp-[Phg]-OMe), in data set [1], the sweetness intensity was 100-1000 times that of sucrose and the taste entry was “quite sweet”. Turning to `COC(=O)C(NC(=O)[C@@H](N)CC(=O)O)C(=O)OC1C2(C)CCC(C2)C1(C)C` (stereo partly drawn) [methyl], the sweetness intensity in data set [1] (listed as R^1a is methyl ester group, R^2a is fenchyl group) is on record as 22,200-33,200 times that of sucrose.
